Assay results taken from patent US20190367516A1 (Bayer Pharma Aktiengesellschaft, priority 2015, published 2019).
Like-named read-outs stand apart in the source and are kept apart here.

Experiments:
human M2 receptor [1] = target: T1, human M2 receptor (Homo sapiens, UniProt P08172); type: cell-based; conditions: α >1 = positive cooperativity
T1 sequence (P08172 1-466): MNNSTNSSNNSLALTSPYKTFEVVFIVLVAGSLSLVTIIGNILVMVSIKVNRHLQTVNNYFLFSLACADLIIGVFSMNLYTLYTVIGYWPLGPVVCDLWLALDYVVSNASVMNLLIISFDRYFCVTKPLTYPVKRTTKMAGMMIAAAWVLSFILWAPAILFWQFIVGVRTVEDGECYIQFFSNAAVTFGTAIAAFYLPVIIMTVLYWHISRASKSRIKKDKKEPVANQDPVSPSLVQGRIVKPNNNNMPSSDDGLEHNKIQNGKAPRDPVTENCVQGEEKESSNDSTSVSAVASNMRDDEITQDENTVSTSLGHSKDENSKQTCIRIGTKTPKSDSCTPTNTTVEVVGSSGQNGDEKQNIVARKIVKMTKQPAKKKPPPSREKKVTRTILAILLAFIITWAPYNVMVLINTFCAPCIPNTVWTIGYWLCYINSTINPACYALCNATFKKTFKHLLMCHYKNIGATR

human M2 receptor [2] = target: T1, human M2 receptor; conditions: for Emax: read-out: Efficiency, boosting of the acetylcholine effect at EC20 acetylcholine concentration; for Efficiency: boosting of the acetylcholine effect at EC20 acetylcholine concentration
[3] = shift in the acetylcholine dose-response curve (Allosteric EC50 shift, GraphPad PRISM)
[4] = Receptor activity EC50, M2-GIRK1/4 activation test, acetylcholine at EC20, allosteric potency, in some cases mean values from two or more determinations
[5] = shift of acetylcholine dose-response curve (Allosteric EC50 shift)
[6] = Receptor activity EC50, allosteric potency at EC20 acetylcholine, M2-GIRK1/4 reporter cells, in some cases mean of two or more determinations

Compound | Cooperativity (alpha factor) (human M2 receptor [1]; [3]) | EC50 (human M2 receptor [2]; [4]) [µM] | Cooperativity (alpha factor) (human M2 receptor [1]; [5]) | EC50 (human M2 receptor [2]; [6]) [µM] | Emax (human M2 receptor [2]; M2-GIRK1/4 reporter cells) [%] | Efficiency (human M2 receptor [2]; M2-GIRK1/4 reporter cells) [%]
CC(C)(NC(=O)c1cn(-c2c(F)cc(F)cc2F)c2nc(N3CC[C@@H](O)C3=O)ccc2c1=O)C(F)(F)F [Example 488, 7-[(3R)-3-Hydroxy-2-oxopyrrolidin-1-yl]-4-oxo-N-(1,1,1-trifluoro-2-methylpropan-2-yl)-1-(2,4,6-trifluorophenyl)-1,4-dihydro-1,8-naphthyridine-3-carboxamide] |  |  | 53 | 0.024 | 96 | 
CC(C)(C)[C@H](NC(=O)c1cn(-c2c(F)cc(F)cc2F)c2nc(N3C[C@@H](O)CC3=O)ccc2c1=O)C(F)(F)F [Example 504, 7-[(4S)-4-Hydroxy-2-oxopyrrolidin-1-yl]-4-oxo-N-[(2S)-1,1,1-trifluoro-3,3-dimethylbutan-2-yl]-1-(2,4,6-trifluorophenyl)-1,4-dihydro-1,8-naphthyridine-3-carboxamide] |  |  | 47 | 0.004 | 100 | 
O=C(NC12CC(C(F)(F)F)(C1)C2)c1cn(-c2c(F)cc(F)cc2F)c2nc(N3C[C@@H](O)CC3=O)ccc2c1=O [Example 372, 7-[(4S)-4-Hydroxy-2-oxopyrrolidin-1-yl]-4-oxo-N-[3-(trifluoromethyl)bicyclo[1.1.1]pent-1-yl]-1-(2,4,6-trifluorophenyl)-1,4-dihydro-1,8-naphthyridine-3-carboxamide] | 34 | 0.02 |  |  |  | 
C[C@H](NC(=O)c1cn(-c2c(F)cc(F)cc2Cl)c2nc(N3C[C@@H](O)CC3=O)ccc2c1=O)C(F)(F)F [Example 409, 1-(2-Chloro-4,6-difluorophenyl)-7-[(4S)-4-hydroxy-2-oxopyrrolidin-1-yl]-4-oxo-N-[(2S)-1,1,1-trifluoropropan-2-yl]-1,4-dihydro-1,8-naphthyridine-3-carboxamide] |  |  | 22 | 0.019 | 99.5 | 
CC(NC(=O)c1cn(-c2c(F)cc(F)cc2F)c2nc(N3CCNC3=O)ccc2c1=O)C(F)(F)C(F)(F)F (racemic) [Example 542, 4-Oxo-7-(2-oxoimidazolidin-1-yl)-N-[3,3,4,4,4-pentafluorobutan-2-yl]-1-(2,4,6-trifluorophenyl)-1,4-dihydro-1,8-naphthyridine-3-carboxamide] |  |  | 36 | 0.019 |  | 98.5
C[C@@H]1C[C@H](F)CN1c1ccc2c(=O)c(C(=O)NC34CC5CC(CC(C5)C3)C4)cn(-c3ccc(F)cc3F)c2n1 [Example 11, 1-(2,4-Difluorophenyl)-7-[(2R,4S)-4-fluoro-2-methylpyrrolidin-1-yl]-4-oxo-N-(tricyclo[3.3.1.1^3,7]dec-1-yl)-1,4-dihydro-1,8-naphthyridine-3-carboxamide] | 10 | 0.061 |  |  |  | 
CC1CCN(c2ccc3c(=O)c(C(=O)N[C@@H](C)C(F)(F)F)cn(-c4c(F)cc(F)cc4Cl)c3n2)C1=O (mixture of isomers) [Example 418, 1-(2-Chloro-4,6-difluorophenyl)-7-[3-methyl-2-oxopyrrolidin-1-yl]-4-oxo-N-[(2S)-1,1,1-trifluoropropan-2-yl]-1,4-dihydro-1,8-naphthyridine-3-carboxamide] |  |  | 7 | 0.017 | 89 | 
O=C(NC12CC3CC(CC(C3)C1)C2)c1cn(-c2ccc(F)cc2F)c2nc(N3CCCC[C@H]3CO)ccc2c1=O [Example 15, 1-(2,4-Difluorophenyl)-7-[(2S)-2-(hydroxymethyl)piperidin-1-yl]-4-oxo-N-(tricyclo[3.3.1.1^3,7]dec-1-yl)-1,4-dihydro-1,8-naphthyridine-3-carboxamide] | 8 | 0.085 |  |  |  | 
CC[C@H](NC(=O)c1cn(-c2c(F)cc(F)cc2F)c2nc(N3CC(CO)(CO)C3)ccc2c1=O)C(F)(F)F [Example 503, 7-[3,3-Bis(hydroxymethyl)azetidin-1-yl]-4-oxo-N-[(2S)-trifluorobutan-2-yl]-1-(2,4,6-trifluorophenyl)-1,4-dihydro-1,8-naphthyridine-3-carboxamide] |  |  | 24 | 0.028 | 88.5 | 
O=C(N[C@@H](C1CC1)C(F)(F)F)c1cn(-c2c(F)cc(F)cc2F)c2nc(N3CCC(CO)(CO)CC3)ccc2c1=O [Example 489, 7-[4,4-Bis(hydroxymethyl)piperidin-1-yl]-N-[(1S)-1-cyclopropyl-2,2,2-trifluoroethyl]-4-oxo-1-(2,4,6-trifluorophenyl)-1,4-dihydro-1,8-naphlthyridine-3-carboxamide] |  |  | 23 | 0.027 | 100 | 

The next lines start with the values.

Cooperativity (alpha factor) (human M2 receptor [1]; [3]) | EC50 (human M2 receptor [2]; [4]) [µM] | Cooperativity (alpha factor) (human M2 receptor [1]; [5]) | EC50 (human M2 receptor [2]; [6]) [µM] | Emax (human M2 receptor [2]; M2-GIRK1/4 reporter cells) [%] | Efficiency (human M2 receptor [2]; M2-GIRK1/4 reporter cells) [%] | Compound
42 | 0.112 |  |  |  |  | O=C(NC(c1c(F)cccc1F)C(F)(F)F)c1cn(-c2ccc(F)cc2F)c2nc(N3C[C@@H](O)CC3=O)ccc2c1=O (single isomer, unassigned) [Example 245]
14 | 0.56 |  |  |  |  | CC[C@H](NC(=O)c1cn(-c2ccc(F)cc2F)c2nc(N3C[C@H](C(=O)OC)OC3=O)ccc2c1=O)C(F)(F)F [Example 259, Methyl (5R)-3-[8-(2,4-difluorophenyl)-5-oxo-6-{[(2S)-1,1,1-trifluorobutan-2-yl]carbamoyl}-5,8-dihydro-1,8-naphthyridin-2-yl]-2-oxo-1,3-oxazolidine-5-carboxylate]
31 | 0.065 |  |  |  |  | CC[C@@H](NC(=O)c1cn(-c2c(F)cccc2F)c2nc(N3CCC(O)C3=O)ccc2c1=O)C(F)(F)F (single isomer, unassigned) [Example 294]
28 | 0.08 |  |  |  |  | CC[C@@H](NC(=O)c1cn(-c2c(F)cccc2F)c2nc(N3CCC(C)(O)C3)ccc2c1=O)C(F)(F)F (mixture of isomers) [Example 276, 1-(2,6-Difluorophenyl)-7-[3-hydroxy-3-methylpyrrolidin-1-yl]-4-oxo-N-[(2R)-1,1,1-trifluorobutan-2-yl]-1,4-dihydro-1,8-naphthyridine-3-carboxamide]
27 | 0.072 |  |  |  |  | CC[C@@H](NC(=O)c1cn(-c2ccc(F)cc2F)c2nc(N3CC(O)(C(F)(F)F)C3)ccc2c1=O)C(F)(F)F [Example 262, 1-(2,4-Difluorophenyl)-7-[3-hydroxy-3-(trifluoromethyl)azetidin-1-yl]-4-oxo-N-[(2R)-1,1,1-trifluorobutan-2-yl]-1,4-dihydro-1,8-naphthyridine-3-carboxamide]
33 | 0.363 |  |  |  |  | CC[C@@H](NC(=O)c1cn(-c2ccc(F)cc2F)c2nc(N3CCC(O)C3=O)ccc2c1=O)C(F)(F)F (single isomer, unassigned) [Example 225]
 |  | 26 | 0.01 | 100 |  | CC[C@H](NC(=O)c1cn(-c2c(F)cc(F)cc2Cl)c2nc(N3C[C@@H](O)CC3=O)ccc2c1=O)C(F)(F)F [Example 398, 1-(2-Chloro-4,6-difluorophenyl)-7-[(4S)-4-hydroxy-2-oxopyrrolidin-1-yl]-4-oxo-N-[(2S)-1,1,1-trifluorobutan-2-yl]-1,4-dihydro-1,8-naphthyridine-3-carboxamide]
 |  | 44 | 0.01 |  | 100.0 | CC[C@H](NC(=O)c1cn(-c2c(F)cc(F)cc2F)c2nc(N3CC(O)C4(CC4)C3)ccc2c1=O)C(F)(F)F (single isomer, unassigned) [Example 621]
 |  | 25 | 0.068 | 96.5 |  | CC[C@@H](NC(=O)c1cn(-c2ccc(F)cc2F)c2nc(N3C[C@@H](O)[C@@H](O)C3)ccc2c1=O)C(F)(F)F [Example 639, 1-(2,4-Difluorophenyl)-7-[(3R,4S)-3,4-dihydroxypyrrolidin-1-yl]-4-oxo-N-[(2R)-1,1,1-trifluorobutan-2-yl]-1,4-dihydro-1,8-naphthyridine-3-carboxamide]
13 | 0.075 |  |  |  |  | CC[C@@H](NC(=O)c1cn(-c2ccc(F)cc2F)c2nc(N3CC(O)C3)ccc2c1=O)C(F)(F)F [Example 261, 1-(2,4-Difluorophenyl)-7-(3-hydroxyazetidin-1-yl)-4-oxo-N-[(2R)-1,1,1-trifluorobutan-2-yl]-1,4-dihydro-1,8-naphthyridine-3-carboxamide]
10 | 0.12 |  |  |  |  | CC[C@@H](NC(=O)c1cn(-c2ccc(F)cc2F)c2nc(N3CCC(C)(OC)C3=O)ccc2c1=O)C(F)(F)F (mixture of isomers) [Example 197, 1-(2,4-Difluorophenyl)-7-[3-methoxy-3-methyl-2-oxopyrrolidin-1-yl]-4-oxo-N-[(2R)-1,1,1-trifluorobutan-2-yl]-1,4-dihydro-1,8-naphthyridine-3-carboxamide]
12 | 0.111 |  |  |  |  | C[C@H](NC(=O)c1cn(-c2ccc(F)cc2F)c2nc(N(C)C)ccc2c1=O)C(F)(F)F [Example 44, 1-(2,4-Difluorophenyl)-7-(dimethylamino)-4-oxo-N-[(2S)-1,1,1-trifluoropropan-2-yl]-1,4-dihydro-1,8-naphthyridine-3-carboxamide]
